Assay results reported in publication PMC9775471, “Anticancer Activity of Thiophene Carboxamide Derivatives as CA-4 Biomimetics: Synthesis, Biological Potency, 3D Spheroid Model, and Molecular Dynamics Simulation” (Biomimetics, 2022).
In brackets after ≈: the same amount, converted by molar mass. Where two headings read alike, the source gives them in different places.

What was measured:
Hep3B (HCC) [1] = conditions: cited from earlier work
[2] = cited from earlier work
[3] = cited from earlier work; remark: listed apart in the source
[4] = cited from earlier work; remark: listed apart in the source
[5] = test system: Colo205 (colon adenocarcinoma) cells; assay: MTS cytotoxicity assay, Colo205; format: cell-based; conditions: Homo sapiens, COLO 205, concentrations 1, 10, 50, 100, 300 µM, mean ± SD
Experimental: (§1) Several tumor cell lines were used in this study including HeLa (cervical adenocarcinoma) HepG2, and Hep3B (HCC); B16F1 (melanoma); MCF-7 (breast carcinoma); Colo205 (colon adenocarcinoma); and CaCo-2 (colorectal adenocarcinoma), in addition to two normal cell lines LX-2 (human hepatic stellate) and Hek293t (kidney cell lines). All evaluated cells were incubated in RPMI-1640 medium and supplemented by 1% of Penicillin/Streptomycin antibiotics, 1% of l-glutamine, and 10% fetal bovine serum. The selected cells were cultivated at 37 °C in a wet environment containing 5% CO2.. In a 96-well plate, the seeding of cells was conducted as 2.5 × 10^4 cells per well. After 72 hr, the cells were confluent, the media was refreshed, and after that, all cells were incubated by several compounds’ concentrations (1, 10, 50, 100, and 300 µM). The viability of cells was investigated by the Cell Tilter 96® Aqueous One Solution Cell Proliferation (MTS) assay regarding the manufacturer’s instructions (Promega Corporation, Madison, WI). In the last step, 20 μL of MTS per 100 μL of media were added to each well and kept at 37 °C; after that at 490 nm wavelength the absorbance was collected.

[6] = test system: CaCo-2 (colorectal adenocarcinoma) cells; assay: MTS cytotoxicity assay, CaCo-2; format: cell-based; conditions: Homo sapiens, concentrations 1, 10, 50, 100, 300 µM, mean ± SD
Experimental: as §1

[7] = test system: Hek293t (kidney cell lines); assay: MTS cytotoxicity assay, normal cell line Hek293t; format: cell-based; conditions: Homo sapiens, HEK-293T, concentrations 1, 10, 50, 100, 300 µM, mean ± SD
Experimental: as §1

Hep3B (HCC) cells = assay: MTS cytotoxicity assay, Hep3B; format: cell-based; conditions: Homo sapiens, concentrations 1, 10, 50, 100, 300 µM, mean ± SD
Experimental: as §1

[8] = test system: HeLa (cervical adenocarcinoma) cells; assay: MTS cytotoxicity assay, HeLa; format: cell-based; conditions: Homo sapiens, concentrations 1, 10, 50, 100, 300 µM, mean ± SD
Experimental: as §1

HepG2 (HCC) cells = assay: MTS cytotoxicity assay, HepG2; format: cell-based; conditions: Homo sapiens, concentrations 1, 10, 50, 100, 300 µM, mean ± SD
Experimental: as §1

[9] = test system: MCF-7 (breast carcinoma) cells; assay: MTS cytotoxicity assay, MCF-7; format: cell-based; conditions: Homo sapiens, MCF7, concentrations 1, 10, 50, 100, 300 µM, mean ± SD
Experimental: as §1

[10] = test system: LX-2 (human hepatic stellate) cells; assay: MTS cytotoxicity assay, normal cell line LX-2; format: cell-based; conditions: concentrations 1, 10, 50, 100, 300 µM
Experimental: as §1

B16F1 (melanoma) cells = assay: MTS cytotoxicity assay, B16F1; format: cell-based; conditions: Mus musculus, B16-F1, concentrations 1, 10, 50, 100, 300 µM, mean ± SD
Experimental: as §1

Hep3B liver cancer cells = assay: Hepatocellular carcinoma spheroids formation test (3D); format: cell-based; conditions: 24 h; for Effect on Hep3B spheroid formation: 17 μg/mL, compared to non-treated cells
Experimental: Hep3B liver cancer cells (4 × 10^3 per well) were seeded in round-bottomed supra-low attachment well plates over 24 h in the presence of 2b or 2e (17 μg/mL). Doxorubicin, a chemotherapeutic medication, was used as a positive control (100 μg/mL). Images of the formed spheroids/clusters were captured at 0 h and 24 h using an inverted microscope with a final magnification of 100×. The photographs of the spheroids were assessed and quantified using ImageJ software.

Hep3B (HCC) [11] = test system: Hep3B (HCC); design: method as in PMID 33763478; conditions: cited from earlier work

Row | melting point | Structure (SMILES) | IC50 against Hep3B (Hep3B (HCC) [1]; earlier series with two halogens at ortho positions) | Plasma half-life [2] | Chemical stability [3] | Water solubility [4] | IC50 [5] | IC50 [6] | IC50 [7] | IC50 (Hep3B (HCC) cells) | IC50 [8] | IC50 (HepG2 (HCC) cells) | IC50 [9] | IC50 [10] | IC50 (B16F1 (melanoma) cells) | Effect on Hep3B spheroid formation (Hep3B liver cancer cells) | Effect on Hep3B spheroid formation (positive control) (Hep3B liver cancer cells; 100 μg/mL) | IC50 against Hep3B (Hep3B (HCC) [1]; earlier fluorophenyl-isoxazole series, para halogen) | Cell cycle effect (Hep3B (HCC) [11]) | IC50 against Hep3B (Hep3B (HCC) [1]; earlier isoxazole-carboxamide series, ortho halogen)
1 | 203.5 to 205 °C | O=C(Nc1ccccc1)c1ccc(-c2ccc(F)cc2)s1 [2a, 5-(4-fluorophenyl)-N-phenylthiophene-2-carboxamide] | – | – | – | – | > 300 µM | > 300 µM | > 300 µM | 28 ± 2.05 µM | > 300 µM | 283.7 ± 1.79 µM | > 300 µM | > 300 µM | > 300 µM | – | – | – | – | –
2 | 190.8 to 192 °C | COc1cc(NC(=O)c2ccc(-c3ccc(F)cc3)s2)cc(OC)c1OC [2b, 5-(4-fluorophenyl)-N-(3,4,5-trimethoxyphenyl) thiophene-2-carboxamide] | – | – | – | – | 35.1 ± 2.05 µM | > 300 µM | 278.1 ± 2.75 µM | 5.46 ± 1.47 µM | 205 µM | > 300 µM | 29.7 ± 2.74 µM | > 300 µM | > 300 µM | significantly smaller spheroid | – | – | – | –
3 | 156.5 to 157 °C | COc1cc(NC(=O)c2ccc(-c3ccc(F)cc3)s2)cc(OC)c1 [2d, N-(3,5-dimethoxyphenyl)-5-(4-fluorophenyl) thiophene-2-carboxamide] | – | – | – | – | > 300 µM | > 300 µM | > 300 µM | 8.85 ± 1.45 µM | > 300 µM | > 300 µM | > 300 µM | > 300 µM | > 300 µM | – | – | – | – | –
4 | 185.5 to 187.5 °C | COc1cc(NC(=O)c2ccc(-c3ccc(F)cc3)s2)c(OC)cc1Cl [2e, N-(4-chloro-2,5-dimethoxyphenyl)-5-(4-flurophenyl)thiophene-2-carboxamide] | – | – | – | – | 74.8 ± 1.45 µM | 82.9 ± 2.45 µM | 105 ± 1.08 µM | 12.6 ± 2.57 µM | 39.6 ± 1.88 µM | 18.2 ± 0.78 µM | 42.5 ± 2.59 µM | > 300 µM | 112 ± 1.99 µM | inhibited spheroid formation | – | – | – | –
5 | 218.5 to 220.4 °C | CC(C)(C)c1ccc(NC(=O)c2ccc(-c3ccc(F)cc3)s2)cc1 [2c, N-(4-(tert-butyl)phenyl)-5-(4-fluorophenyl) thiophene-2-carboxamide] | – | – | – | – | > 300 µM | > 300 µM | > 300 µM | 189 ± 2.78 µM | > 300 µM | > 300 µM | > 300 µM | > 300 µM | > 300 µM | – | – | – | – | –

Second part, the molecule before the results:

Row | Structure (SMILES) | melting point | IC50 against Hep3B (Hep3B (HCC) [1]; earlier series with two halogens at ortho positions) | Plasma half-life [2] | Chemical stability [3] | Water solubility [4] | IC50 [5] | IC50 [6] | IC50 [7] | IC50 (Hep3B (HCC) cells) | IC50 [8] | IC50 (HepG2 (HCC) cells) | IC50 [9] | IC50 [10] | IC50 (B16F1 (melanoma) cells) | Effect on Hep3B spheroid formation (Hep3B liver cancer cells) | Effect on Hep3B spheroid formation (positive control) (Hep3B liver cancer cells; 100 μg/mL) | IC50 against Hep3B (Hep3B (HCC) [1]; earlier fluorophenyl-isoxazole series, para halogen) | Cell cycle effect (Hep3B (HCC) [11]) | IC50 against Hep3B (Hep3B (HCC) [1]; earlier isoxazole-carboxamide series, ortho halogen)
6 | Cc1onc(-c2c(F)cccc2Cl)c1C(=O)Nc1ccc(C(C)(C)C)cc1 [St.3, N-(4-(tert-butyl)phenyl)-3-(2-chloro-6-fluorophenyl)-5-methylisoxazole-4-carboxamide] | – | 2.77 µg/mL (≈ 7.16 µM) | – | – | – | – | – | – | – | – | – | – | – | – | – | – | – | – | –
7 | COc1ccc(/C=C\c2cc(OC)c(OC)c(OC)c2)cc1O [CA-4, Combretastatin A-4] | – | – | short | chemical instability | poor | – | – | – | – | – | – | – | – | – | – | – | – | – | –
8 | COc1cccc2c1C(=O)c1c(O)c3c(c(O)c1C2=O)C[C@@](O)(C(=O)CO)C[C@@H]3O[C@H]1C[C@H](N)[C@H](O)[C@H](C)O1 [DOX, Doxorubicin, reference compound] | – | – | – | – | – | < 1 µM | < 1 µM | 1.24 ± 0.87 µM | 1.21 ± 1 µM | 1.55 ± 1.35 µM | 1.6 ± 0.67 µM | < 1 µM | < 1 µM | < 1 µM | – | no recognized sphere formation | – | – | –
9 | COc1ccc(NC(=O)c2c(-c3ccc(F)cc3)noc2C)cc1OC [St.2, N-(3,4-dimethoxyphenyl)-3-(4-fluorophenyl)-5-methylisoxazole-4-carboxamide] | – | – | – | – | – | – | – | – | – | – | – | – | – | – | – | – | 7.66 µg/mL (≈ 21.5 µM) | – | –
10 | COc1ccc(OC)c(NC(=O)c2c(-c3ccccc3Cl)noc2C)c1 [St.1, 3-(2-chlorophenyl)-N-(2,5-dimethoxyphenyl)-5-methylisoxazole-4-carboxamide] | – | – | – | – | – | – | – | – | – | – | – | – | – | – | – | – | – | cell cycle arrest in the G2/M phase | 23 µg/mL (≈ 61.7 µM)
